Assay results taken from patent US20130324576A1, “THERAPEUTIC COMPOUNDS” (Takeda Pharmaceutical Company Limited, priority 2012, published 2013).

Target: T1, human PKR1 receptors (Homo sapiens, UniProt Q8TCW9)
T1 construct: expressed in transfected cells; host or cells: RBL2H3 cells (rat basophilic leukaemia line) expressing human PKR1
Assay: PKR1 antagonist assay: block of PK1-mediated intracellular calcium release (FLIPR Tetra, Calcium 5 dye)
Format: cell-based
Details: RBL2H3 cells expressing human PKR1; 10 min pre-incubation, stimulation with PK1 at EC80; calcium fluorescence
Protocol: Prokineticin receptor 1 (PKR1) antagonists may be functionally assessed by measurement of change in intracellular calcium levels induced by Gq mediated increase in inositol triphosphate (IP3) levels. The ability of a compound to block the intracellular release of calcium mediated by PK1 in RBL2H3 cells expressing human PKR1 receptors is determined as a measure of the compound's antagonist activity in vitro.
Approximately 10,000 cells per assay well are seeded in normal culture medium in a 384 well plate (Corning). Twenty-four hours after seeding, the cells are loaded with a calcium sensitive fluorescent dye by replacing the culture medium with assay buffer (1× Hanks buffered saline, 25 mM HEPES, 0.1% w/v fatty acid free BSA (bovine serum albumin), pH 7.4) containing 1 mM probenecid and 1× Calcium 5 Reagent (Molecular Devices). Cells are incubated at 37° C. for 1 hour to allow for dye uptake.
To test for antagonist activity, test compounds at a final concentration range between 0.32 nM-10 μM (diluted in assay buffer) are added to the assay wells and allowed to incubate for 10 minutes prior to stimulation with PK1. After incubation with test compounds the assay plate is placed in a FLIPR Tetra (Molecular Devices) and PK1 (diluted in assay buffer) is added at the determined EC80 concentration (final). Ligand-dependent changes in intracellular calcium levels are determined by measuring changes in fluorescence of the dye at […] following excitation at 485 nm.

T1 sequence (Q8TCW9 whole entry): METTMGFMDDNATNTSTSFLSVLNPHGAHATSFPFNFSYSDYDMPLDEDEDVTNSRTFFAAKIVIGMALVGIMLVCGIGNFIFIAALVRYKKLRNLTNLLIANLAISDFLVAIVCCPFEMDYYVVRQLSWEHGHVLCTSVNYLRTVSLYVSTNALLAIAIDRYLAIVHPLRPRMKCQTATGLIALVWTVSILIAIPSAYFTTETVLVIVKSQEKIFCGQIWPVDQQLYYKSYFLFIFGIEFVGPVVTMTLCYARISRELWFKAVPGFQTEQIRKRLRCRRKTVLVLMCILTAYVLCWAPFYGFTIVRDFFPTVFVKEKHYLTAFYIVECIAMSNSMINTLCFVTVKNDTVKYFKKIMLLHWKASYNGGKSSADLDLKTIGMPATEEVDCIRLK

Row | SMILES | IC50
1 | Cc1cnn(C)c1S(=O)(=O)N1CCC(Oc2ccc(Cl)cc2Cl)CC1 [Example 36, 4-(2,4-Dichlorophenoxy)-1-(1,4-dimethyl-1H-pyrazole-5-sulfonyl)piperidine] | 1.1 µM
2 | CCOC(=O)C1(Cc2ccc(Cl)cc2)CCN(S(=O)(=O)c2c(C)nn(C)c2C)CC1 [Example 61, Ethyl 4-(4-chlorobenzyl)-1-((1,3,5-trimethyl-1H-pyrazol-4-yl)sulfonyl)piperidine-4-carboxylate] | 1.08 µM
3 | COc1cccc(OC2CCN(S(=O)(=O)c3c(C)nn(C)c3C)CC2)c1 [Example 17, 4-(3-Methoxyphenoxy)-1-[(1,3,5-trimethyl-1H-pyrazol-4-yl)sulfonyl]piperidine] | 3.6 µM
4 | Cc1n[nH]c(C)c1S(=O)(=O)N1CCC(C(CO)c2ccc(Cl)cc2)CC1 (stereo not shown) [Example 100, 2-(4-Chlorophenyl)-2-(1-((3,5-dimethyl-1H-pyrazol-4-yl)sulfonyl)piperidin-4-yl)ethanol] | 9.42 µM
5 | Cc1n[nH]c(C)c1S(=O)(=O)N1CCC(F)(Cc2ccc(Cl)cc2F)CC1 [Example 80, 4-(4-Chloro-2-fluorobenzyl)-1-((3,5-dimethyl-1H-pyrazol-4-yl)sulfonyl)-4-fluoropiperidine] | 0.81 µM
6 | Cc1nn(C)c(C)c1S(=O)(=O)N1CCC(Oc2cccc(Cl)c2)CC1 [Example 6, 4-(3-Chlorophenoxy)-1-[(1,3,5-trimethyl-1H-pyrazol-4-yl)sulfonyl]piperidine] | 2.2 µM
7 | Cc1nn(C)c(C)c1S(=O)(=O)N1CCC(Nc2ccc(Cl)cc2)CC1 [Example 51, N-(4-Chlorophenyl)-1-((1,3,5-trimethyl-1H-pyrazol-4-yl)sulfonyl)piperidin-4-amine] | 1.5 µM
8 | Cc1n[nH]c(C)c1S(=O)(=O)N1CCC(Oc2ccc(Cl)c(F)c2)CC1 [Example 47, 4-(4-Chloro-3-fluorophenoxy)-1-(3,5-dimethyl-1H-pyrazole-4-sulfonyl)piperidine] | 1.9 µM
9 | Cc1nn(C)c(C)c1S(=O)(=O)N1CCC(O)(Cc2ccc(Cl)c(Cl)c2)CC1 [Example 69, 4-(3,4-Dichlorobenzyl)-1-((1,3,5-trimethyl-1H-pyrazol-4-yl)sulfonyl)piperidin-4-ol] | 6.47 µM
10 | COCC1(Cc2ccc(Cl)cc2)CCN(S(=O)(=O)c2c(C)nn(C)c2C)CC1 [Example 60, 4-(4-Chlorobenzyl)-4-(methoxymethyl)-1-((1,3,5-trimethyl-1H-pyrazol-4-yl)sulfonyl)piperidine] | 0.9 µM
11 | Cc1n[nH]c(C)c1S(=O)(=O)N1CCC(C#N)(Cc2ccc(Cl)cc2Cl)CC1 [Example 65, 4-(2,4-Dichlorobenzyl)-1-((3,5-dimethyl-1H-pyrazol-4-yl)sulfonyl)piperidine-4-carbonitrile] | 0.94 µM
12 | Cc1nn(C)c(C)c1S(=O)(=O)N1CCC(O)(Cc2ccc(Cl)cc2)CC1 [Example 57, 4-(4-Chlorobenzyl)-1-((1,3,5-trimethyl-1H-pyrazol-4-yl)sulfonyl)piperidin-4-ol] | 1.6 µM
13 | COCC(c1ccc(Cl)cc1)C1CCN(S(=O)(=O)c2c(C)n[nH]c2C)CC1 (stereo not shown) [Example 109, 4-(1-(4-Chlorophenyl)-2-methoxyethyl)-1-((3,5-dimethyl-1H-pyrazol-4-yl)sulfonyl)piperidine] | 1.86 µM
14 | Cc1c(S(=O)(=O)N2CCC(Oc3ccc(Cl)cc3)CC2)c(C(F)(F)F)nn1C [Example 16, 4-(4-Chlorophenoxy)-1-{[1,5-dimethyl-3-(trifluoromethyl)-1H-pyrazol-4-yl]sulfonyl}piperidine] | 4.6 µM
15 | Cc1ccc(OC2CCN(S(=O)(=O)c3c(C(F)(F)F)nn(C)c3C)CC2)cc1 [Example 10, 1-{[1,5-Dimethyl-3-(trifluoromethyl)-1H-pyrazol-4-yl]sulfonyl}-4-(4-methylphenoxy)piperidine] | 1.7 µM
16 | Cc1nn(C)c(C)c1S(=O)(=O)N1CCC(Oc2ccc(F)cc2)CC1 [Example 20, 4-(4-Fluorophenoxy)-1-[(1,3,5-trimethyl-1H-pyrazol-4-yl)sulfonyl]piperidine] | 3.6 µM
17 | Cc1nn(C)c(C)c1S(=O)(=O)N1CCC(C(=O)c2ccc(Cl)cc2)CC1 [Example 49, (4-Chlorophenyl)(1-((1,3,5-trimethyl-1H-pyrazol-4-yl)sulfonyl)piperidin-4-yl)methanone] | 1 µM
18 | Cc1n[nH]c(C)c1S(=O)(=O)N1CCC(Cc2ccc(Cl)cc2F)CC1 [Example 82, 4-(4-Chloro-2-fluorobenzyl)-1-((3,5-dimethyl-1H-pyrazol-4-yl)sulfonyl)piperidine] | 1.02 µM
19 | Cc1nn(C)c(C)c1S(=O)(=O)N1CCC(C(=O)c2ccc(Cl)c(Cl)c2)CC1 [Example 50, (3,4-Dichlorophenyl)(1-((1,3,5-trimethyl-1H-pyrazol-4-yl)sulfonyl)piperidin-4-yl)methanone] | 2.1 µM
20 | Cc1n[nH]c(C)c1S(=O)(=O)N1CCC(Oc2ccc(Cl)cc2Cl)CC1 [Example 22, 4-(2,4-Dichlorophenoxy)-1-[(3,5-dimethyl-1H-pyrazol-4-yl)sulfonyl]piperidine] | 1.18 µM
21 | Cc1n[nH]c(C)c1S(=O)(=O)N1CCC(O)(Cc2ccc(Cl)cc2F)CC1 [Example 75, 4-(4-Chloro-2-fluorobenzyl)-1-((3,5-dimethyl-1H-pyrazol-4-yl)sulfonyl)piperidin-4-ol] | 6.98 µM

Other lines, results leading:

Row | IC50 | SMILES
22 | 0.47 µM | Cc1nn(C)c(C)c1S(=O)(=O)N1CCC(Oc2ccc(Br)cc2F)CC1 [Example 14, 4-(4-Bromo-2-fluorophenoxy)-1-[(1,3,5-trimethyl-1H-pyrazol-4-yl)sulfonyl]piperidine]
23 | 0.71 µM | Cc1nn(C)c(C)c1S(=O)(=O)N1CCC(C(O)c2ccc(Cl)cc2)CC1 (stereo not shown) [Example 95, (4-Chlorophenyl)(1-((1,3,5-trimethyl-1H-pyrazol-4-yl)sulfonyl)piperidin-4-yl)methanol]
24 | 0.17 µM | COc1cc(Cl)ccc1OC1CCN(S(=O)(=O)c2c(C)nn(C)c2C)CC1 [Example 74, 4-(4-Chloro-2-methoxyphenoxy)-1-((1,3,5-trimethyl-1H-pyrazol-4-yl)sulfonyl)piperidine]
25 | 0.41 µM | COc1cc(Cl)ccc1CC1(O)CCN(S(=O)(=O)c2c(C)n[nH]c2C)CC1 [Example 89, 4-(4-Chloro-2-methoxybenzyl)-1-((3,5-dimethyl-1H-pyrazol-4-yl)sulfonyl)piperidin-4-ol]
26 | 0.22 µM | Cc1nn(C)c(C)c1S(=O)(=O)N1CCC(Oc2ccc3ccccc3c2)CC1 [Example 23, 4-(Naphthalen-2-yloxy)-1-[(1,3,5-trimethyl-1H-pyrazol-4-yl)sulfonyl]piperidine]
27 | 0.44 µM | Cc1nn(C)c(C)c1S(=O)(=O)N1CCC(Cc2ccc(Cl)c(F)c2)CC1 [Example 72, 4-(4-Chloro-3-fluorobenzyl)-1-((1,3,5-trimethyl-1H-pyrazol-4-yl)sulfonyl)piperidine]
28 | 0.51 µM | Cc1nn(C)c(C)c1S(=O)(=O)N1CCC(Oc2ccc(Cl)cc2F)CC1 [Example 30, 4-(4-Chloro-2-fluorophenoxy)-1-(trimethyl-1H-pyrazole-4-sulfonyl)piperidine]
29 | 0.79 µM | Cc1nn(C)c(C)c1S(=O)(=O)N1CCC(Oc2ccc(Cl)cc2Cl)CC1 [Example 13, 4-(2,4-Dichlorophenoxy)-1-[(1,3,5-trimethyl-1H-pyrazol-4-yl)sulfonyl]piperidine]
30 | 0.73 µM | Cc1nn(C)c(C)c1S(=O)(=O)N1CCC(Cc2ccc(Cl)cc2F)CC1 [Example 83, 4-(4-Chloro-2-fluorobenzyl)-1-((1,3,5-trimethyl-1H-pyrazol-4-yl)sulfonyl)piperidine]
31 | 0.32 µM | CCc1nn(C)c(CC)c1S(=O)(=O)N1CCC(Oc2ccc(Cl)cc2Cl)CC1 [Example 28, 4-(2,4-Dichlorophenoxy)-1-[(3,5-diethyl-1-methyl-1H-pyrazol-4-yl)sulfonyl]piperidine]
32 | 0.14 µM | COc1cc(Cl)ccc1CC1(F)CCN(S(=O)(=O)c2c(C)nn(C)c2C)CC1 [Example 91, 4-(4-Chloro-2-methoxybenzyl)-4-fluoro-1-((1,3,5-trimethyl-1H-pyrazol-4-yl)sulfonyl)piperidine]
33 | 0.41 µM | Cc1n[nH]c(C)c1S(=O)(=O)N1CCC(C(F)c2ccc(Cl)cc2)CC1 (stereo not shown) [Example 105, 4-((4-Chlorophenyl)fluoromethyl)-1-((3,5-dimethyl-1H-pyrazol-4-yl)sulfonyl)piperidine]
34 | 0.47 µM | Cc1n[nH]c(C)c1S(=O)(=O)N1CCC(C(C)c2ccc(Cl)cc2)CC1 (stereo not shown) [Example 102, 4-(1-(4-Chlorophenyl)ethyl)-1-((3,5-dimethyl-1H-pyrazol-4-yl)sulfonyl)piperidine]
35 | 0.34 µM | Cc1n[nH]c(C)c1S(=O)(=O)N1CCC(C(c2ccc(Cl)cc2)C(F)F)CC1 (stereo not shown) [Example 111, 4-(1-(4-Chlorophenyl)-2,2-difluoroethyl)-1-((3,5-dimethyl-1H-pyrazol-4-yl)sulfonyl)piperidine]
36 | 0.67 µM | Cc1nn(C)c(C)c1S(=O)(=O)N1CCC(F)(Cc2ccc(Cl)cc2F)CC1 [Example 81, 4-(4-Chloro-2-fluorobenzyl)-4-fluoro-1-((1,3,5-trimethyl-1H-pyrazol-4-yl)sulfonyl)piperidine]
37 | 0.31 µM | Cc1n[nH]c(C)c1S(=O)(=O)N1CCC(C(F)c2ccc(Cl)cc2)CC1 (single isomer, unassigned) [Example 107, 4-((4-Chlorophenyl)fluoromethyl)-1-((3,5-dimethyl-1H-pyrazol-4-yl)sulfonyl)piperidine]
